Reference: patent US20240034717A1, “NOVEL POTASSIUM CHANNEL INHIBITORS” (Saniona A/S, priority 2020, published 2024)

target: erythrocyte KCa3.1 channels (Homo sapiens (Human), UniProt O15554); test: Erythrocyte KCa3.1 assay; assay type: cell-based; details: human erythrocytes, A23187-activated KCa3.1; read-out: RBC K (in vitro) Human IC50 (μM) Potency category
Description: Human blood was drawn from healthy human volunteers in a standard heparinized blood sampling vial (Vacutainer, Li/heparin, ED Bioscience, Plymouth, UK). The erythrocytes were packed by centrifugation, and the plasma and buffy coat were removed by aspiration. Erythrocytes were washed three times in the experimental salt solution and then stored at 0° C. until use. Blood samples from NMRI mice or from Wistar rats were treated similarly. The methodological principle is outlined in Macey et al. (1978) and further described in Strøbaek et al. (2013). Activation of the erythrocyte KCa3.1 channels were obtained by addition of the Ca^2+ ionophore A23187, which causes synchronized hyperpolarization, which is reported as a CCCP-mediated shift in the unbuffered extracellular pH of the erythrocyte suspension. Standard procedure: 3 mL unbuffered experimental salt solution (in mM: 2 KCl, 154 NaCl, 0.05 CaCl2) was heated to 37° C. with stirring. Packed erythrocytes were added (50 μL, final cytocrit 1.5%), and the extracellular pH (pHo) followed with a glass/calomel (pHG200-8/REF200, Radiometer, Denmark) electrode pair. CCCP (3 μL, final concentration 20 μM) was added followed by varying concentrations of test compounds (DMSO concentration constant). After pH stabilization at ˜7.2, A23187 (3 μL, final concentration 0.33 μM) was added to initiate the experiment. After the peak hyperpolarization was attained, the intracellular pH (pHi constant during the experiment) was found by haemolysing the erythrocytes via addition of 100 μL of Triton-X100.
The erythrocyte membrane potential, Vm, was calculated according to: […]
and the fractional remaining Ca^2+-activated K^+-conductance at the concentration C of blocker, fGK(C), was calculated from
where the K^+ equilibrium potential EK=−107 mV, the Cl^− equilibrium potential ECl=−12 mV and the Vm(0) and Vm(C) are the peak hyperpolarizations in the control and in the presence of a concentration of C of blocker respectively.
IC50 values for compounds were calculated from a plot of fGK(C) versus C by a fit to the Hill equation, using a custom program written in the IGOR-Pro software (WaveMetrics, Lake Oswego, OR, USA). All IC50-values are reported in μM.

**Q.** For `Fc1ccc(C2(NC[C@H]3CCCN3)CCC2)cc1C1CC1` [1-(3-cyclopropyl-4-fluorophenyl)-N-{[(2R)-pyrrolidin-2-yl]methyl}cyclobutan-1-amine], which IC50 is on record?
**A.** < 1 µM

**Q.** With `Fc1ccc(C2(NC[C@@H]3CCCN3)CCC2)cc1C1CC1` [1-(3-cyclopropyl-4-fluorophenyl)-N-{[(2S)-pyrrolidin-2-yl]methyl}cyclobutan-1-amine] as the compound, how does the IC50 read?
**A.** < 1 µM

**Q.** Which IC50 does the source give for `Fc1cc(C(F)(F)F)cc(C2(NC[C@H]3CCCN3)CCC2)c1` [1-[3-fluoro-5-(trifluoromethyl)phenyl]-N-{[(2R)-pyrrolidin-2-yl]methyl}cyclobutan-1-amine] here?
**A.** < 1 µM

**Q.** Which IC50 does the source give for `Fc1ccc(C2(NC[C@H]3CCCN3)CCC2)cc1C(F)(F)F` [1-[4-fluoro-3-(trifluoromethyl)phenyl]-N-{[(2R)-pyrrolidin-2-yl]methyl}cyclobutan-1-amine] here?
**A.** < 1 µM

**Q.** Which IC50 does the source give for `Fc1ccc(C2(NC[C@@H]3CCCN3)CCC2)cc1C(F)(F)F` [1-[4-fluoro-3-(trifluoromethyl)phenyl]-N-{[(2S)-pyrrolidin-2-yl]methyl}cyclobutan-1-amine] here?
**A.** < 0.3 µM

**Q.** Which IC50 does the source give for `CC(C)(N)CNC1(c2cccc(C(F)(F)F)c2)CCC1` [2-methyl-N1-{1-[3-(trifluoromethyl)phenyl]cyclobutyl}propane-1,2-diamine] here?
**A.** < 0.3 µM

**Q.** With `CS(=O)(=O)N(C[C@H]1CCCN1)C1(c2ccc(F)c(C(F)(F)F)c2)CC1` [(R)-N-(1-(4-fluoro-3-(trifluoromethyl)phenyl)cyclopropyl)-N-(pyrrolidin-2-ylmethyl) methane sulfonamide] as the compound, how does the IC50 read?
**A.** < 1 µM

**Q.** How did the IC50 turn out when `O=C(OCC1CC1)N(C[C@@H]1CCCN1)C1(c2ccc(F)c(C(F)(F)F)c2)CC1` [Cyclopropylmethyl (S)-(1-(4-fluoro-3-(trifluoromethyl)phenyl)cyclopropyl)(pyrrolidin-2-ylmethyl)carbamate] was run?
**A.** < 0.3 µM

**Q.** `COC(=O)N(CCN)C1(c2ccc(F)c(C(F)(F)F)c2)CC1` [Methyl (2-aminoethyl)(1-(4-fluoro-3-(trifluoromethyl)phenyl)cyclopropyl)carbamate] was tested. Which IC50 did it give?
**A.** < 1 µM

**Q.** `COC(=O)N(C[C@@H]1COCCN1C)C1(c2ccc(F)c(C(F)(F)F)c2)CC1` [Methyl (R)-(1-(4-fluoro-3-(trifluoromethyl)phenyl)cyclopropyl)((4-methylmorpholin-3-yl)methyl)carbamate] was tested. Which IC50 did it give?
**A.** < 0.3 µM

**Q.** For `COC(=O)N(C[C@@H]1COCCN1)C1(c2ccc(F)c(C(F)(F)F)c2)CC1` [Methyl (R)-(1-(4-fluoro-3-(trifluoromethyl)phenyl)cyclopropyl)(morpholin-3-ylmethyl) carbamate], which IC50 is on record?
**A.** < 1 µM

**Q.** For `COC(=O)N(CC(C)(C)N)C1(c2cc(Cl)ccc2F)CCC1` [Methyl N-(2-amino-2-methylpropyl)-N-[1-(5-chloro-2-fluorophenyl)cyclobutyl]carbamate], which IC50 is on record?
**A.** < 1 µM

**Q.** With `COC(=O)N(CC(C)(C)N)C1(c2cccc(OC(F)(F)F)c2)CCC1` [Methyl N-(2-amino-2-methylpropyl)-N-{1-[3-(trifluoromethoxy)phenyl]cyclobutyl}carbamate] as the compound, how does the IC50 read?
**A.** < 0.3 µM

**Q.** How did the IC50 turn out when `COC(=O)N(CC(C)(C)N)C1(c2cc(F)cc(C(F)(F)F)c2)CCC1` [Methyl N-(2-amino-2-methylpropyl)-N-{1-[3-fluoro-5-(trifluoromethyl)phenyl]cyclobutyl}carbamate] was run?
**A.** < 0.3 µM

**Q.** With `COC(=O)N(C[C@H]1CCCN1)C1(c2cccc(Cl)c2)CCC1` [Methyl N-[1-(3-chlorophenyl)cyclobutyl]-N-{[(2R)-pyrrolidin-2-yl]methyl}carbamate] as the compound, how does the IC50 read?
**A.** < 0.3 µM

**Q.** With `COC(=O)N(C[C@@H]1CCCN1)C1(c2cccc(Cl)c2)CCC1` [Methyl N-[1-(3-chlorophenyl)cyclobutyl]-N-{[(2S)-pyrrolidin-2-yl]methyl}carbamate] as the compound, how does the IC50 read?
**A.** < 0.3 µM

**Q.** `COC(=O)N(C[C@@H]1CCCN1)C1(c2cc(Cl)ccc2F)CCC1` [Methyl N-[1-(5-chloro-2-fluorophenyl)cyclobutyl]-N-{[(2S)-pyrrolidin-2-yl]methyl}carbamate] was tested. Which IC50 did it give?
**A.** < 1 µM

**Q.** How did the IC50 turn out when `COC(=O)N(C[C@@H]1CCCN1)C1(c2cc(C(F)(F)F)ccc2F)CCC1` [Methyl N-{1-[2-fluoro-5-(trifluoromethyl)phenyl]cyclobutyl}-N-{[(2S)-pyrrolidin-2-yl]methyl}carbamate] was run?
**A.** < 1 µM

**Q.** Which IC50 does the source give for `COC(=O)N(C[C@H]1CCCN1)C1(c2cc(F)cc(C(F)(F)F)c2)CCC1` [Methyl N-{1-[3-fluoro-5-(trifluoromethyl)phenyl]cyclobutyl}-N-{[(2R)-pyrrolidin-2-yl]methyl}carbamate] here?
**A.** < 0.3 µM

**Q.** With `COC(=O)N(C[C@@H]1CCCN1)C1(c2cc(F)cc(C(F)(F)F)c2)CCC1` [Methyl N-{1-[3-fluoro-5-(trifluoromethyl)phenyl]cyclobutyl}-N-{[(2S)-pyrrolidin-2-yl]methyl}carbamate] as the compound, how does the IC50 read?
**A.** < 0.3 µM

**Q.** `COC(=O)N(C[C@H]1CCCN1)C1(c2cccc(OC(F)(F)F)c2)CCC1` [Methyl N-{[(2R)-pyrrolidin-2-yl]methyl}-N-{1-[3-(trifluoromethoxy)phenyl]cyclobutyl}carbamate] was tested. Which IC50 did it give?
**A.** < 0.3 µM

**Q.** For `COC(=O)N(C[C@@H]1CCCN1)C1(c2cccc(OC(F)(F)F)c2)CCC1` [Methyl N-{[(2S)-pyrrolidin-2-yl]methyl}-N-{1-[3-(trifluoromethoxy)phenyl]cyclobutyl}carbamate], which IC50 is on record?
**A.** < 0.3 µM

**Q.** With `COC(=O)N(C1CNC1)C1(c2ccc(F)c(C(F)(F)F)c2)CC1` [Methyl azetidin-3-yl(1-(4-fluoro-3-(trifluoromethyl)phenyl)cyclopropyl)carbamate] as the compound, how does the IC50 read?
**A.** < 1 µM

**Q.** `CC(C)(N)CNC1(c2cccc(Cl)c2)CCC1` [N1-[1-(3-chlorophenyl)cyclobutyl]-2-methylpropane-1,2-diamine] was tested. Which IC50 did it give?
**A.** < 0.3 µM

**Q.** For `CC(C)(N)CN(C1CCC1)C1(c2cccc(C(F)(F)F)c2)CC1` [N1-cyclobutyl-2-methyl-N1-(1-(3-(trifluoromethyl)phenyl)cyclopropyl)propane-1,2-diamine], which IC50 is on record?
**A.** < 0.3 µM

**Q.** Which IC50 does the source give for `CC(C)(N)CNC1(c2ccc(F)c(C(F)(F)F)c2)CCC1` [N1-{1-[4-fluoro-3-(trifluoromethyl)phenyl]cyclobutyl}-2-methylpropane-1,2-diamine] here?
**A.** < 0.3 µM

**Q.** With `CS(=O)(=O)N(CC1(N)CC1)C1(c2ccc(F)c(C(F)(F)F)c2)CC1` [N-((1-aminocyclopropyl)methyl)-N-(1-(4-fluoro-3-(trifluoromethyl)-phenyl)cyclopropyl)methanesulfonamide] as the compound, how does the IC50 read?
**A.** < 1 µM

**Q.** Which IC50 does the source give for `FC(F)(F)Oc1cccc(C2(NC[C@H]3CCCN3)CCC2)c1` [N-{[(2R)-pyrrolidin-2-yl]methyl}-1-[3-(trifluoromethoxy)phenyl]cyclobutan-1-amine] here?
**A.** < 1 µM

**Q.** How did the IC50 turn out when `FC(F)(F)c1cccc(C2(NC[C@H]3CCCN3)CCC2)c1` [N-{[(2R)-pyrrolidin-2-yl]methyl}-1-[3-(trifluoromethyl)phenyl]cyclobutan-1-amine] was run?
**A.** < 1 µM

**Q.** How did the IC50 turn out when `FC(F)(F)Oc1cccc(C2(NC[C@@H]3CCCN3)CCC2)c1` [N-{[(2S)-pyrrolidin-2-yl]methyl}-1-[3-(trifluoromethoxy)phenyl]cyclobutan-1-amine] was run?
**A.** < 1 µM

**Q.** How did the IC50 turn out when `FC(F)(F)c1cccc(C2(NC[C@@H]3CCCN3)CCC2)c1` [N-{[(2S)-pyrrolidin-2-yl]methyl}-1-[3-(trifluoromethyl)phenyl]cyclobutan-1-amine] was run?
**A.** < 1 µM

**Q.** With `COC(=O)N(CC(C)(C)N)C1(c2cccc(C(F)(F)F)c2)CCC1` [methyl N-(2-amino-2-methylpropyl)-N-{1-[3-(trifluoromethyl)phenyl]cyclobutyl}carbamate] as the compound, how does the IC50 read?
**A.** < 0.3 µM
